Test results published in paper PMC11891075, “TRIM66-HP1γ remodels the chromatin through phase separation” (Biophysics Reports, 2025).
Values belong to the molecule of their own block, whether it stands above or below them. Residues, ends and D or L forms follow the SMILES beside them.

Key:
[1] = tested on: condensates formed by mEGFP-TRIM66 and mCherry-HP1γ in U2OS cells; assay: Live-cell imaging of condensates before and after 1,6-hexanediol; type: cell-based; conditions: 10% 1,6-hexanediol for 5 min, 10 independent fields from one cell dish
Protocol: U2OS cells and HeLa cells were cultured in high-glucose DMEM supplemented with 10% fetal bovine serum and 1% penicillin-streptomycin at 37 °C in a humidified incubator containing 5% CO2. Following the manufacturer's instructions, cells were transfected with plasmid DNA using Lipofectamine 3000 (Thermo Fisher Scientific).
Genes encoding human TRIM66 or its constructs were cloned into the pmEGFP-C3 (Clontech) vector with an N-terminal mEGFP tag or the Flag vector with an N-terminal Flag tag. Genes encoding human HP1γ or HP1γ^L172A/W174A were cloned into the pcDNA3.1 vector with an N-terminal mCherry tag.
U2OS cells were cultured on 35-mm glass bottom dishes (Wuxi NEST Biotechnology Co., Ltd) coated with poly-D-lysine (Sigma-Aldrich). L-15 medium without phenol red (Thermo Fisher Scientific) was used during live-cell imaging to maintain a suitable environment for cell growth, and the temperature was kept at approximately 37 °C. Images were obtained with a Nikon Ti fluorescent inverted microscope with a 100× 1.4 NA objective; an XY Piezo Z stage (Applied Scientific Instrumentation); a spinning disk confocal unit (Yokogawa); and an electron multiplier CCD camera (Andor) controlled by IQ3 live-cell imaging software (Andor). Images collected with this system were 16-bit and consisted of 512 × 512 pixels, and the pixel size was 0.12 μm.

HP1γ-CSD (WT) = biological target: T1, HP1γ-CSD (WT) (Homo sapiens, UniProt Q13185); assay: Isothermal titration calorimetry (ITC), HP1γ-CSD wild type; type: binding; conditions: 20 °C, 20 mmol/L Tris-HCl, 150 mmol/L NaCl, pH 7.5, Fig. 2F
T1 construct: HP1γ CSD (110–176aa) and TRIM66 PxVxL motif peptide(856–868aa), mixed at a molar ratio of 1:1.2; made in house
T1 sequence (Q13185 110-176): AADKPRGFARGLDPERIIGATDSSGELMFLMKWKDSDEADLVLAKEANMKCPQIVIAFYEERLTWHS
Protocol: (§1) HP1γ_CSD (residues 110–176) was amplified by PCR from the human brain cDNA library and cloned into the pET-28a(+) expression vector (Novagen), contained an N-terminal 6× His tag and a tobacco etch virus (TEV) protease cleavage site. All mutants of HP1 were generated using a MutantBEST kit (Takara) and confirmed by DNA sequencing. All the proteins were expressed in Escherichia coli BL21 (DE3) cells (Novagen) cultured in LB medium at 37 °C to OD600 = 0.8, then shifted to 16 °C and induced with 0.5 mmol/L isopropyl β-D-1-thiogakactopyranoside (IPTG) for 24 h. Bacterial pellets were resuspended in Buffer A (20 mmol/L Tris-HCl, 500 mmol/L NaCl, pH 7.5) and lysed by sonication on ice. Then, soluble proteins were purified with a Ni^2+-chelating column (Cytiva Life Sciences) and a Superdex 75 column (Cytiva Life Sciences). After being cleaved by TEV protease overnight at 4 °C to remove the 6× His tag, the purified protein was concentrated to ∼10 mg/mL in Buffer B (20 mmol/L Tris-HCl, 150 mmol/L NaCl, pH 7.5) and stored at –80 °C. […]
(§2) Isothermal titration calorimetry (ITC) assays were performed using a MicroCal PEAQ-ITC calorimeter (Cytiva Life Sciences), and all experiments were carried out at 20 °C. […] The concentrations of the proteins were determined spectrophotometrically. […]

HP1γ-CSD^W174A = biological target: T2, HP1γ-CSD^W174A (Homo sapiens, UniProt Q13185, W174A); assay: ITC, HP1γ-CSD W174A mutant; type: binding; conditions: 20 °C, 20 mmol/L Tris-HCl, 150 mmol/L NaCl, pH 7.5, Fig. 2F
T2 construct: HP1γ CSD (110–176aa) and TRIM66 PxVxL motif peptide(856–868aa), mixed at a molar ratio of 1:1.2; His6 (N); made in house
T2 sequence (Q13185 110-176 W174A): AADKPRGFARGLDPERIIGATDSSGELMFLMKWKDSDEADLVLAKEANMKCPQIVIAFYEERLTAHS
Protocol: as §1, §2

HP1γ-CSD^L172A = biological target: T3, HP1γ-CSD^L172A (Homo sapiens, UniProt Q13185, L172A); assay: ITC, HP1γ-CSD L172A mutant; type: binding; conditions: 20 °C, 20 mmol/L Tris-HCl, 150 mmol/L NaCl, pH 7.5, Fig. 2F
T3 construct: HP1γ CSD (110–176aa) and TRIM66 PxVxL motif peptide(856–868aa), mixed at a molar ratio of 1:1.2; His6 (N); made in house
T3 sequence (Q13185 110-176 L172A): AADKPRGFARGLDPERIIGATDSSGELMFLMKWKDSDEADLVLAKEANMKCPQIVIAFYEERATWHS
Protocol: as §1, §2

HP1γ-CSD^I165A = biological target: T4, HP1γ-CSD^I165A (Homo sapiens, UniProt Q13185, I165A); assay: ITC, HP1γ-CSD I165A mutant (monomeric); type: binding; conditions: 20 °C, 20 mmol/L Tris-HCl, 150 mmol/L NaCl, pH 7.5, Fig. 2F
T4 construct: HP1γ CSD (110–176aa) and TRIM66 PxVxL motif peptide(856–868aa), mixed at a molar ratio of 1:1.2; His6 (N); made in house
T4 sequence (Q13185 110-176 I165A): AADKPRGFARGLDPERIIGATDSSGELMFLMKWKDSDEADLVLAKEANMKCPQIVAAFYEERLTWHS
Protocol: as §1, §2

HP1γ-CSD^D131A = biological target: T5, HP1γ-CSD^D131A (Homo sapiens, UniProt Q13185, D131A); assay: ITC, HP1γ-CSD D131A mutant; type: binding; conditions: 20 °C, 20 mmol/L Tris-HCl, 150 mmol/L NaCl, pH 7.5, Fig. 2G
T5 construct: HP1γ CSD (110–176aa) and TRIM66 PxVxL motif peptide(856–868aa), mixed at a molar ratio of 1:1.2; His6 (N); made in house
T5 sequence (Q13185 110-176 D131A): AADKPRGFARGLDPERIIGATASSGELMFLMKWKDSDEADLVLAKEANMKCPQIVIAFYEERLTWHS
Protocol: as §1, §2

HP1γ-CSD^R171A = biological target: T6, HP1γ-CSD^R171A (Homo sapiens, UniProt Q13185, R171A); assay: ITC, HP1γ-CSD R171A mutant; type: binding; conditions: 20 °C, 20 mmol/L Tris-HCl, 150 mmol/L NaCl, pH 7.5, Fig. 2G
T6 construct: HP1γ CSD (110–176aa) and TRIM66 PxVxL motif peptide(856–868aa), mixed at a molar ratio of 1:1.2; His6 (N); made in house
T6 sequence (Q13185 110-176 R171A): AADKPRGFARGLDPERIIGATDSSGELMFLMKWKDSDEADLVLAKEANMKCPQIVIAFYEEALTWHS
Protocol: as §1, §2

[2] = biological target: HP1γ chromo shadow domain (CSD), residues 110-176 (human) (UniProt Q13185); assay: ITC; MicroCal PEAQ-ITC, 20 °C, Buffer B (20 mmol/L Tris-HCl, 150 mmol/L NaCl, pH 7.5); TRIM66 peptide titrated into HP1γ-CSD
Sequence of HP1γ chromo shadow domain (CSD), residues 110-176 (human) (Q13185 110-176): as the sequence (Q13185 110-176) above

[3] = tested on: HP1γ and nuclear extract (NE); assay: GST pull-down assay; type: binding, human; conditions: glutathione-Sepharose, 20 mmol/L Tris, 150 mmol/L NaCl, 1 mmol/L DTT, pH 7.5, 6 h at 4 °C; SDS-PAGE and western blot
Protocol: The gene for human TRIM66 full-length (residues 1–1050) was purchased from Life Technologies. All the DNA fragments for the human TRIM66 (residues 820–909, 840–909) were amplified by PCR. The proteins were cloned into a modified pGEX4T-1vector with a GST tag and TEV protease cleavage site. The proteins were expressed in Escherichia coli BL21 (DE3) cells and induced with 0.5 mmol/L IPTG for 24 h at 16 °C. The protein was purified by GST column (Cytiva Life Sciences), followed by TEV protease cleavage and size-exclusion chromatography on a Hiload 16/60 Superdex 200 column (Cytiva Life Sciences).
Nuclear extracts (NEs) were prepared as described with slight modifications. HeLa cells (1 × 10^8 cells/mL) were suspended with 4 mL of Buffer A comprising 0.5 mmol/L EDTA, 2 mmol/L MgCl2, 0.1% (v/v) protease inhibitor (PI) (Nakalai Tesque, Japan), 2 mmol/L β-mercaptoethanol, 10 mmol/L Tris–HCl, pH 7.8, and centrifuged at 1500 g for 2 min at 4 °C. […] The concentrations of NEs were determined by DNA concentrations calculated from the absorbance at 260 nm.
The GST alone control, GST-tagged protein (TRIM66^820–909) was bound to glutathione-Sepharose beads (Cytiva Life Sciences) in a buffer of 20 mmol/L Tris, 200 mmol/L NaCl, and 1 mmol/L DTT at pH 7.5, and incubated at 4 °C for 4 h. […] The proteins captured by beads were eluted and analyzed by SDS-PAGE and western blot.

Molecule: OCCCCCCO [1,6-hexanediol]
- effect on mEGFP-TRIM66 and mCherry-HP1γ condensates [1]: depolymerized and the fluorescence signal was evenly distributed in the entire nucleus

B1: GST-TRIM66^820-909: GST-tagged TRIM66 residues 820–909, which contains HP1γ-CSD binding motif (protein, UniProt O15016 820-909, looked up, fragment)
chain: NLISDSPQAMASLASDHPQAGPSLMSGHTQAVPSLATCPLQSIPPVSDMQPETGSSSSSGRTSGSLCPRDGADPSLENALCKMESEDSTR
modifications: GST tag
- complex formation with HP1γ and NE (GST pull-down) [3]: can form stable complexes

The remaining lines, values ahead:

- Kd (HP1γ-CSD (WT)): 280 ± 20 nM
- KD (HP1γ-CSD^W174A): No binding
- KD (HP1γ-CSD^L172A): No binding
- KD (HP1γ-CSD^I165A): No binding
- Kd (HP1γ-CSD^D131A): 1360 ± 109 nM
- Kd (HP1γ-CSD^R171A): 2050 ± 38 nM
Molecule: CC[C@H](C)[C@H](NC(=O)[C@H](CCCCN)NC(=O)[C@H](Cc1c[nH]cn1)NC(=O)[C@@H](N)CCC(=O)O)C(=O)N1CCC[C@H]1C(=O)N[C@@H](Cc1ccc(O)cc1)C(=O)N[C@H](C(=O)N[C@@H](CCCNC(=N)N)C(=O)N[C@@H](CC(C)C)C(=O)N[C@@H](CCC(=O)O)C(=O)N[C@@H](CCCNC(=N)N)C(=O)N[C@@H](CC(C)C)C(=O)N[C@@H](CCCCN)C(=O)O)C(C)C [TRIM66^856-868] (H-EHKIPYVRLERLK-OH)

- Kd [2]: 280 nM
- stoichiometry N (HP1γ-CSD per TRIM66 peptide (2:1)) [2]: 2
Molecule: TRIM66 PxVxL motif peptide (residues 856-868)
